# System: A. fumigatus
# Experiment: Second experiment: survival of immune-suppressed balb-c mice infected intranasally with A. fumigatus conidia
# Assay type: in vivo, Aspergillus fumigatus
# Parameters: animals that had died by day 6 after infection: dose or concentration left out as unconfirmed
# Procedure: In a second experiment, male balb-c mice were utilized. The animals of all groups were immune-suppressed using 100 mg/kg body weight cyclophosphamide at day −4, −1, 0, 2, 5 and 8. On day −1, the animals received 100 mg/kg cyclophosphamide i.p. and 200 mg/kg cortisone acetate subcutaneous (24±2 hours before infection). Additionally, the animals were treated by inhalation of itraconazole using the same inhalation device as described in the study above. At day 0, the animals were infected intranasally with 2.5×104 A. fumigatus conidia.
# Additionally, one group of mice used as reference group was treated with Amphotericin B i.p. using 3 mg/kg daily.
# The drug effect was assessed as the number of surviving animals. As expected, 9 out of 12 control animals had already died on day 6 after infection and the remaining animals died with the exception of one until day 9. For animals treated as decribed above, i.e. using the 10% aerosol of itraconazole twice daily, a strong effect was seen.
compound,measurement,setting,value
"C[C@@H]1[C@H](O)[C@@H](C)/C=C/C=C/C=C/C=C/C=C/C=C/C=C/[C@H](O[C@@H]2O[C@H](C)[C@@H](O)[C@H](N)[C@@H]2O)C[C@@H]2O[C@](O)(C[C@@H](O)C[C@@H](O)[C@H](O)CC[C@@H](O)C[C@@H](O)CC(=O)O[C@H]1C)C[C@H](O)[C@H]2C(=O)O [Amphothericin B, Amphotericin B]",animals that had died by day 6 after infection,"12 per group, control animals",3
same,animals that had died at the end of the observation period,"14 days observation, itraconazole 10% aerosol twice daily, Amphotericin B i.p. 3 mg/kg daily",9 out of 12

# From patent publication US20110190245A1, “NANOSUSPENSION WITH ANTIFUNGAL MEDICATION TO BE ADMINISTERED VIA INHALATION WITH IMPROVED IMPURITY PROFILE AND SAFETY” (priority 2008, published 2011)
